Measured values from US10865222B2, “Neisseria gonorrhoeae therapeutic based on CMP-nonulosonate sugars” (priority 2014, dated 2020).

How the values were obtained:
[1] = assay type: physicochemical
Description: Importantly, Neu5Ac9Az/Neu5Ac9Ac and Leg5Ac7Ac differ from Neu5Ac at carbon 9 and carbons 7 and 9, respectively. As well, Neu5Gc8Me differs from Neu5Gc at carbon 8. As such, carbons 7, 8 and 9 within the exocyclic moiety of nonulosonate sugars appear to play a critical role in the avoidance of serum mediated killing by N. gonorrhoeae, as evidenced by the enhanced serum-mediated killing with CMP-Neu5Ac9Az, CMP-Neu5Ac9Ac, CMP-Leg5Ac7Ac and CMP-Neu5Gc8Me, that was not observed with either CMP-Neu5Ac or CMP-Neu5Gc only feeding controls.

Ng F62 (wildtype [WT]) = assay: BALB/c vaginal colonization model, Ng F62; assay type: in vivo, N. gonorrhoeae; settings: 10 μg intravaginally daily
Description: FIG. 13. […] A and B. Efficacy of CMP-Leg5Ac7Ac against Ng F62. 17β-estradiol treated BALB/c mice were infected with i) Ng F62 (wildtype [WT]) and treated (CMP-Leg5Ac7Ac, 10 μg intravaginally, daily), ii) Ng F62 WT→saline (No treatment) or iii) Ng F62 Δlst (cannot sialylate LOS), untreated. Ng load in the vagina was enumerated daily. A. Time to clearance. B. Area under the curve (AUC; each point represents the AUC of CFU vs. time for each mouse). Horizontal bar, geometric mean. C and D. Efficacy of CMP-Leg5Ac7Ac vs ceftriaxone-resistant isolate H041. Time to clearance (C) and AUC analysis (D) are described above.
The efficacy of CMP-Leg5Ac7Ac against Ng was tested in the BALB/c vaginal colonization model (FIG. 13) (51). Three groups of 17β-estradiol treated BALB/c mice (10 mice/group) were infected as follows: i) WT F62→CMP-Leg5Ac7Ac (10 μg intravaginally daily), ii) WT F62→saline control (‘untreated’) and iii) F62 List (cannot sialylate LOS)→untreated.

| Compound | stability of the preparation [1] | Ng infection (time to clearance, AUC of CFU vs. time) (Ng F62 (wildtype [WT]); 17β-estradiol treated BALB/c mice, vs saline) | sensitivity to human complement of bacteria recovered directly from treated mice (Ng F62 (wildtype [WT]); BALB/c mice, not shown) |
| --- | --- | --- | --- |
| CC(=O)N[C@H]1[C@H]([C@H](O)[C@H](O)COC(C)=O)OC(OP(=O)(O)OC[C@H]2O[C@@H](n3ccc(N)nc3=O)[C@H](O)[C@@H]2O)(C(=O)O)C[C@@H]1O (stereo partly drawn) [CMP-Neu5Ac9Ac, CMP-5-acetamido-9-O-acetyl-3,5-dideoxy-D-glycero-D-galacto-nonulosonic acid] | spontaneous breakdown of the 9OAc group | – | – |
| 5,7-diacetamido-3,5,7,9-tetradeoxy-D-glycero-D-galacto-nonulosonic acid [CMP-Leg5Ac7Ac] | – | significantly attenuated Ng infection | became sensitive to human complement |
